Activity and EC50 data for one molecule are collected here from ChEMBL document CHEMBL1158551, “Click reaction synthesis of carbohydrate derivatives from ristocetin aglycon with antibacterial and antiviral activity” (Bioorg Med Chem Lett, 2010).

Series [1] is described as follows: Toxicity assessed as increase of ristocetin-induced platelet aggregation. The class given is cell-based.
The subject of series [2] is Influenza B virus. Briefly: Antiviral activity against influenza B virus assessed as inhibition of viral induced cytopathic effect. The series is classed as functional, organism-based.
Series [3] deals with Influenza A virus. In words: Antiviral activity against influenza A virus H1N1 assessed as cell viability by cell based MTS assay. The series is classed as functional, organism-based.
The test system of series [4] is Influenza A virus. Briefly: Antiviral activity against Influenza A virus H3N2 assessed as cell viability by cell based MTS assay. The class given is functional, organism-based.
For series [5], the system named is Influenza A virus. Briefly: Antiviral activity against Influenza A virus H3N2 assessed as inhibition of viral induced cytopathic effect. The class given is functional, organism-based.
Series [6] deals with Influenza A virus. Briefly: Antiviral activity against influenza A virus H1N1 assessed as inhibition of viral induced cytopathic effect. The series is classed as functional, organism-based.
The test system of series [7] is Influenza B virus. In words: Antiviral activity against influenza B virus assessed as cell viability by cell based MTS assay. The series is classed as functional, organism-based.

pEC50: −log10 of the molar value.

Regarding `COC(=O)[C@H]1NC(=O)[C@H]2NC(=O)[C@H](NC(=O)[C@@H]3NC(=O)[C@H]4NC(=O)[C@H](NC(=O)[C@H](n5cc(CO[C@@H]6O[C@@H](C)[C@H](O)[C@@H](O)[C@H]6O)nn5)c5ccc(O)c(c5)Oc5cc4cc(O)c5C)[C@H](O)c4ccc(cc4)Oc4cc3cc(c4O)Oc3ccc(cc3)[C@H]2O)c2ccc(O)c(c2)-c2c(O)cc(O)cc21`, the Activity entry in series [1] is “Toxic”. Besides, the pEC50 with Influenza B virus [2], with Influenza A virus [3], in the series on Influenza A virus [4], in the series with Influenza A virus [5], with Influenza A virus [6] and in the series with Influenza B virus [7] was under 4.00 in each case.
